Laboratory results as given in patent publication US9057055B2, “Method of obtaining circulating cancer cell populations” (THE ROYAL INSTITUTION FOR THE ADVANCEMENT OF …, priority 2012, dated 2015).

System: CCC cells from a breast cancer patient (ER+, PR−, HER2 (2+))
Assay: Drug-sensitivity assay of cultured CCCs (Presto Blue cell growth/viability)
Type: cell-based, human
Settings: cultured CCCs grown in MammoCult media, 10 000 cells per well, 48 hours incubation, Presto Blue fluorescence vs vehicle-treated cells (FIG. 13)
Protocol: One or more frozen aliquot of RoboSep™ CD45-negative cell population (described in Example I and containing about 5×10^6 nucleated cells and about 1 000 to 3 000 CTCs based on Epimet™-positive staining) is cultured in the conditions described in Example II until approximately 600 000 cells are obtained (usually after 6 subculture steps). This amount of cells is sufficient for testing four distinct compounds in triplicate at four different concentrations using a plating density of approximately 5 000 to 10 000 cells/well in 96-well plates. Cells are plated onto ultra-low attachment microtiter plates at 5 000 to 10 000 cells/well in 125 μL of fresh MammoCult™ media in triplicates. Experimental and control samples (no cells added) are incubated for 24 hours at 37° C. and 5% CO2. […] Fluorescence intensity (FI) is determined using a spectrofluorometer (excitation: 530-560 nm; emission: 590 nm). Dose response curves are calculated as a percentage of untreated controls (FI590 of test agent dilution/FI590 of untreated control)×100 and the LD50 are calculated.
Cells were collected by aphaeresis from a breast cancer patient (ER+, PR−, HER2 (2+)) diagnosed with invasive lobular carcinoma and metastatic spread to bone, liver and the mediastinum. […] Cell growth/viability was assessed using Presto Blue®(Invitrogen). […] Fluorescence values use the excitation and emission peaks for resorufin. […]

| IC50 (Homo sapiens, low attachment 96-well plate, read-out: IC50 of inhibition of cell growth) | Compound | effect on cell growth (increasing concentrations) |
| --- | --- | --- |
|  | CC(=O)O[C@H]1C(=O)[C@@]2(C)[C@H]([C@H](OC(=O)c3ccccc3)[C@]3(O)C[C@H](OC(=O)[C@H](O)[C@@H](NC(=O)c4ccccc4)c4ccccc4)C(C)=C1C3(C)C)[C@]1(OC(C)=O)CO[C@@H]1C[C@@H]2O [taxol, paclitaxel] | no effect |
| ~1000 nM | COc1cccc2c1C(=O)c1c(O)c3c(c(O)c1C2=O)C[C@@](O)(C(=O)CO)C[C@@H]3O[C@H]1C[C@H](N)[C@@H](O)[C@H](C)O1 [epirubicin] |  |
